Test results published in paper PMC4764977, “AZD8797 is an allosteric non-competitive modulator of the human CX3CR1 receptor” (Biochemical Journal, 2016).

What was measured:
[1] = molecular target: T1, CX3CR1 (RPMI-8226 cells) (Homo sapiens, UniProt P49238); assay: Dynamic mass redistribution (DMR), RPMI-8226 cells; format: cell-based
T1 construct: RPMI-8226 cells, a human B-lymphocyte cell line endogenously expressing human CX3CR1; CCL-155; host or cells: RPMI-8226
T1 sequence (P49238 1-355): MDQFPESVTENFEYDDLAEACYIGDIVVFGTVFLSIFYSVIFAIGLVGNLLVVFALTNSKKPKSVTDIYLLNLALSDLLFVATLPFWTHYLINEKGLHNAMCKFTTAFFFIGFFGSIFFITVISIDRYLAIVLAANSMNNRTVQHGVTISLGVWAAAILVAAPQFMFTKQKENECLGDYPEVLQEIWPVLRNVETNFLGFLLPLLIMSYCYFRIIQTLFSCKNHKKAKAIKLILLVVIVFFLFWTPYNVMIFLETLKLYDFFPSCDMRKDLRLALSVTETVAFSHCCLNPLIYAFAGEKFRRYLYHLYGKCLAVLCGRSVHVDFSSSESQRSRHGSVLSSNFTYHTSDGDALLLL
Protocol: CHO-hCX3CR1 cells were seeded at 12000 cells per well in DMEM with 10% FBS and RPMI-8226 cells at 8000 cells per well in RPMI 1640 medium with GlutaMAX and 20% FBS on 384-well fibronectin-coated EPIC™ biosensor plates (Corning) and cultured at 37°C for 24 h. At 18–24 h prior to compound treatment, the medium was replaced with serum-free medium with or without 100 ng·ml^−1 PTX. Cells were then washed with assay buffer (HBSS, 20 mM HEPES (pH 7.4) and 0.01% BSA) and allowed to equilibrate at 26°C for 1 h inside the EPIC™ plate reader. Following equilibration, a baseline scan was performed before adding AZD8797 or CX3CL1 using a CyBi-Well vario (CyBio). Dynamic mass redistribution (DMR) was then measured during a 60 min scan. As in the [^35S]GTPγS binding assay, the final DMSO concentration was held constant at 1%.

[2] = molecular target: T2, CX3CR1 (Homo sapiens, UniProt P49238); assay: [35S]GTPγS accumulation assay, CHO-hCX3CR1 membranes; format: biochemical; set-up: host or cells: CHO-K1
T2 sequence (P49238 1-355): T1 sequence (P49238 1-355)
Protocol: Adherent CHO-K1 cells stably expressing human CX3CR1 (CHO-hCX3CR1) were grown in F12 medium with GlutaMAX, 10% FBS (Sigma–Aldrich) and 400 μg·ml^−1 geneticin and harvested at 80% confluency. Cells were washed in PBS and lysed with an Ultra-Turrax Homogenizer in 50 mM Tris/HCl (pH 7.4) and 1 mM EDTA with Complete™ protease inhibitor (Roche). After centrifugation at 1000 g for 10 min, membranes were collected by ultracentrifugation at 100000 g for 45 min at 4°C. The membranes were resuspended in 10 mM Tris/HCl (pH 7.4), 1 mM EDTA and 10% sucrose, divided into aliquots, frozen in liquid nitrogen and stored in −80°C. Protein concentration was determined using the BCA method (Thermo Fisher Scientific).
0.56 μCi·ml^−1 [^35S]GTPγS and EC80 of CX3CL1 were then added. The plate was incubated at 30°C for 1 h and subsequently unbound [^35S]GTPγS was separated from bound by vacuum filtration to a Printed Filtermat B (PerkinElmer) using a Skatron Micro96 harvester and dried at 50°C for 1 h. The filters were soaked with a melt-on scintillator sheet (MeltiLex, PerkinElmer), sealed using a MeltiLex heat sealer and measured in a MicroBeta Trilux reader (PerkinElmer).

[3] = molecular target: T2, CX3CR1; assay: Equilibrium saturation binding, CHO-hCX3CR1 membranes; set-up: host or cells: CHO-K1
Protocol: Cells were washed in PBS and lysed with an Ultra-Turrax Homogenizer in 50 mM Tris/HCl (pH 7.4) and 1 mM EDTA with Complete™ protease inhibitor (Roche). […] Protein concentration was determined using the BCA method (Thermo Fisher Scientific). […] The filter plate was washed in ice-cold 25 mM HEPES (pH 7.4), 5 mM MgCl2, 1 mM CaCl2 and 500 mM NaCl and dried at 50°C for 1 h. Scintillation cocktail, Optiphase Supermix (PerkinElmer) was added to each well and the radioactivity was measured using a MicroBeta Trilux reader (PerkinElmer). […] The DMSO concentration was held constant at 1%. where Kd is the radioligand dissociation constant. Saturation binding isotherms were analysed by non-linear regression and globally fitted to a hyperbolic one-site binding model taking into account both NSB and total binding to calculate the total receptor number (Bmax) and radioligand dissociation constant (Kd): […] NSB=NS·X+Background, where NS is the concentration-dependent NSB. To visualize the manner of binding of CX3CL1 and AZD8797, a diagnostic affinity ratio plot designed to compare strictly competitive behaviour with allosteric interactions was used. […] For single site competitive interactions, the resulting linear plot has the slope of 1.0. For allosteric but competitive interactions, the slope will start at 1.0 but progressively deviate from unity, eventually reaching a limit governed by the allosteric ternary complex model co-operativity factor α [21, 22].

[4] = molecular target: T2, CX3CR1; assay: [3H]AZD8797 kinetic radioligand binding, CHO-hCX3CR1 membranes; set-up: host or cells: CHO-K1
Protocol: Assays were performed as described under equilibrium binding studies with the additions stated below. Association experiments on [^3H]AZD8797 were performed by adding 1 · Kd of radioligand in assay buffer in a 96-well plate. The reactions were started by addition of CHO-hCX3CR1 membranes at different time points and then incubated for between 1.5 min and 2 h at room temperature before being filtered. For the [^3H]AZD8797 dissociation experiments 1 · Kd of radioligand was incubated with CHO-hCX3CR1 membranes for 1 h at room temperature before starting the dissociation with the addition of 10 μM unlabelled AZD8797. The reactions were incubated for between 2.5 min and 3 h at room temperature before being filtered.
For the association experiments, the radioligand data were fitted to the following monophasic exponential association equation and the association rate (kon) was calculated using the added amounts of radioligand (L) and dissociation rate (koff) as constants. koff was measured in separate dissociation experiments.
The dissociation data were fitted to the monophasic exponential decay equation: […]
where Y0 is the binding (cpm) at time zero, X is the time and NS is the (non-specific) binding at infinite times. Half-life could then be calculated by dividing ln (2) by koff. Multiple compound dissociation data were fitted to the biphasic exponential decay equation: […]

[5] = molecular target: T2, CX3CR1; assay: 125I-CX3CL1 competition assay, HEK293 cells co-transfected with Gqi5-protein (Karlstrom et al.); format: binding; set-up: host or cells: CHO-K1; settings: HEK293 Gqi5 vs CHO-hCX3CR1 membranes
[6] = increasing concentrations of unlabelled compound

Q: How did the “Effect of PTX treatment on DMR signal” value ([1]; 100 ng·ml^−1 PTX) turn out when CC(C)C[C@H](CO)Nc1nc(S[C@@H](C)c2ccccc2)nc2nc(N)sc12 [AZD8797] was run?
A: reduced

Q: And the EC50 ([1]; n=3)?
A: 410 nM

Q: What about the “Agonistic effect in [35S]GTPγS accumulation” value ([2]; compound alone, results not shown) of the same compound?
A: No agonistic effect

Q: And the IC50 ([2]; response from 2 nM CX3CL1 (EC80), n > 24, read-out: IC50, inhibition of CX3CL1-induced [35S]GTPγS accumulation)?
A: 340 nM

Q: What about the “Effect on Bmax of 125I-CX3CL1 saturation binding” value [3, 6] of the same compound?
A: decreased

Q: What about the “Effect on Kd of 125I-CX3CL1 saturation binding” value [3, 6] of the same compound?
A: without any effect

Q: And the Kd ([3]; one-site model, n=4)?
A: 12 nM

Q: And the koff ([4]; dissociation started with 10 μM unlabelled AZD8797, n=2)?
A: 0.0007 s⁻¹

Q: And the kon ([4]; from kobs (n=5) and koff, room temperature)?
A: 233000 M⁻¹ s⁻¹

Q: What about the Dissociation half-life ([4]; from koff) of the same compound?
A: approximately 17 min

Q: What about the Kd ([4]; koff/kon, read-out: Kd from rate constants) of the same compound?
A: 2.9 nM

Q: And the “Higher affinity than in this paper's 125I-CX3CL1 competition assay” value [5]?
A: ~100 fold
